Laboratory results taken from patent US20260250320A1, “LIPIDATED PEPTIDE INHIBITORS OF INTERLEUKIN-23 RECEPTOR” (Janssen Pharmaceutica NV, priority 2023, published 2026).
pIC50: −log10 of the molar value. *1 amine or outer side, *2 acyl side, *3 side chain or, on linkers, in order; H or OH if unused. Where a SMILES comes first, the peptide text is derived from it. Bridges are numbered along the chain shown (N, C = ends). Side-chain parts run from the residue outwards. [ ]: non-standard residue; d: D form. The star is where a group is joined. ξ: configuration not given here. X16 = CC(C)(S[*:2])[C@H](CC(=O)CCOCCOCC[N+](C)(C)C)C(=O)[*:1]; X12 = O=C(O)CCCCCCCCCCCCCCCCC(=O)C[C@@H](CCC(=O)*)C(=O)O; Me3N+(CH2)2O(CH2)2O(CH2)2CO = C[N+](C)(C)CCOCCOCCC(=O)*; PEG12 = NCCOCCOCCOCCOCCOCCOCCOCCOCCOCCOCCOCCOCCC(=O)O; CH2CH2OCH2CH2OCH2CH2NMe3+ = C[N+](C)(C)CCOCCOCC*; Trp(7-Me) = Cc1cccc2c(C[C@H](N)C(=O)O)c[nH]c12; C20 diacid = O=C(O)CCCCCCCCCCCCCCCCCCC(=O)*; C18 diacid = O=C(O)CCCCCCCCCCCCCCCCC(=O)*; γGlu = O=C(O)[C@H](CCC(=O)[*:2])N[*:1]; 2Nal = N[C@@H](Cc1ccc2ccccc2c1)C(=O)O; 3Pal = N[C@@H](Cc1cccnc1)C(=O)O; Lys(Me) = CNCCCC[C@H](N)C(=O)O; NMeK = CN[C@@H](CCCCN)C(=O)O; Pen = CC(C)(S)[C@H](N)C(=O)O; Thp = NC1(C(=O)O)CCOCC1; X1 = C[N+](C)(C)CCCCC*; ξN = NC(=O)CC(N)C(=O)O; AEEA = NCCOCCOCC(=O)O; Sar = CNCC(=O)O

Experiments:
[1] = molecular target: T1, IL-23R (Homo sapiens, UniProt Q5VWK5); test: IL23R Reporter Assay; assay type: cell-based; conditions: HEK293 cells containing IL-23R, IL-12Rβ1 and STAT-inducible firefly luciferase reporter; 10 ng/mL IL-23 (EC90); 5 h
T1 construct: HEK293 cells containing IL-23R, IL-12Rβ1 and a firefly luciferase reporter gene driven by a STAT-inducible promoter (Promega); host or cells: HEK293
T1 sequence (Q5VWK5 24-629): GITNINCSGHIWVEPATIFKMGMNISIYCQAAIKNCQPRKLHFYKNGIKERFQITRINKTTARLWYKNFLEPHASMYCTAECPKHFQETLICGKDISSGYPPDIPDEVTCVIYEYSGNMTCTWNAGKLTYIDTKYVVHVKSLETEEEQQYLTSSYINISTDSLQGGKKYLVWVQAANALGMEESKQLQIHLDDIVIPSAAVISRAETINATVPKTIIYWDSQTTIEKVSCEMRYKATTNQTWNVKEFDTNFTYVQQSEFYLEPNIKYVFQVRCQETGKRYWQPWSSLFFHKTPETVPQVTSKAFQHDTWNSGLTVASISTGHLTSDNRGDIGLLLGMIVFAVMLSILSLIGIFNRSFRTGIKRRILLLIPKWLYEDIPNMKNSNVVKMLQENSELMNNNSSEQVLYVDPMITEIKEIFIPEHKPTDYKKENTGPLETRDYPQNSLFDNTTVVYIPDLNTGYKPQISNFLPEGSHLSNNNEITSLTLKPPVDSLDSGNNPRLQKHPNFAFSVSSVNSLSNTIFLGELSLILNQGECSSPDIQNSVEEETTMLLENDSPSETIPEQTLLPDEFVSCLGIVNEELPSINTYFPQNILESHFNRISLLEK
How it was run: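 HEK293 cells carrying IL-23R, IL-12Rβ1 and a STAT-driven firefly luciferase reporter (4000 cells/well) received compound, then 10 ng/mL IL-23 solution (EC90), and were incubated for 5 h at 37° C. BioGlo luminescence was normalised to IL-23 alone (0%) and 30 μM control inhibitor (100%). IC50 came from a 4-parameter Hill fit.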

[2] = test system: IL-23-stimulated phosphorylated STAT3 in peripheral blood mononuclear cells (PBMCs); test: PBMC pSTAT3 Assay; assay type: cell-based; conditions: PBMCs from healthy donors; 30 min preincubation with peptide; IL-23 5 ng/mL for 30 min; phospho-STAT3 by MSD
Experimental: Cryopreserved peripheral blood mononuclear cells (PBMCs) from healthy donors were thawed and washed twice in ImmunoCult-XF T cell expansion medium (XF-TCEM) supplemented with CTL anti-aggregate wash. The cells were counted, resuspended at 2-6×10^5 cells per mL XF-TCEM supplemented with penicillin/streptomycin and 100 ng/mL […] (BioLegend, 579404), and cultured in tissue culture flasks coated with anti-CD3 (eBioscience, 16-0037-85 or BD Pharmingen, 555329) at 37° C. in 5% CO2. On day 4 of culture, PBMCs were collected, washed twice in RPMI-1640 supplemented with 0.1% BSA (RPMI-BSA), and incubated in RPMI-BSA in upright tissue culture flasks for ~4 hours at 37° C. in 5% CO2. Following this 'starvation,' a total of 6×10^4 cells in 30 μL RPMI-BSA was transferred into each well of a 384-well plate pre-spotted with peptide or DMSO. The cells were incubated for 30 minutes prior to the addition of […] at a final concentration of 5 ng/mL. The cells were stimulated with cytokine for 30 minutes at 37° C. in 5% CO2, transferred onto ice for 10 minutes, and lysed. Cell lysates were stored at -80° C. until phosphorylated STAT3 was measured using the phospho-STAT panel kit (Meso Scale Discovery, […]). Results are provided below. • A: IC50<0.5 nM; • B: 0.5 nM≤IC50<5 nM; • C: 5 nM≤IC50; • ND: Not determined

pIC50 [1] | SMILES | pIC50 [2]
> 7.30 | CC(=O)N(C)CCCC[C@@H]1NC(=O)[C@H](Cc2c[nH]c3c(C)cccc23)NC(=O)[C@H]([C@@H](C)O)NC(=O)[C@H](CCCCNC(=O)CCOCCOCCOCCOCCOCCOCCOCCOCCOCCOCCOCCOCCNC(=O)CC[C@H](CC(=O)CCCCCCCCCCCCCCCCC(=O)O)C(=O)O)NC(=O)[C@@H](NC(=O)CCOCCOCC[N+](C)(C)C)C(C)(C)SSC(C)(C)[C@@H](C(=O)N[C@@H](Cc2ccc(OCCCCC[N+](C)(C)C)cc2)C(=O)N[C@@H](Cc2ccc3ccccc3c2)C(=O)NC2(C(=O)N[C@@H](CCCCN(C)C(C)=O)C(=O)N[C@@H](CC(N)=O)C(=O)N[C@@H](Cc3cccnc3)C(=O)N(C)CC(=O)N(C)C)CCOCC2)NC1=O [compound 125, cPEG3aCO-Pen(3)-K(PEG12gEC18OH)-T-7MeW-K(NMeAc)-Pen(3)-TMAPF-2Nal-THP-K(NMeAc)-N-3Pya-Sar-CON(Me)2] ({Me3N+(CH2)2O(CH2)2O(CH2)2CO}-[Pen]K([PEG12-X12])T[Trp(7-Me)][Lys(Me)](Ac)[Pen]Y(X1)[2Nal][Thp][Lys(Me)](Ac)N[3Pal][Sar]-NMe2; disulfide 1-6) | 8.30 to 9.30
> 7.30 | CC(=O)N(C)CCCC[C@@H]1NC(=O)[C@H](Cc2c[nH]c3c(C)cccc23)NC(=O)[C@H]([C@@H](C)O)NC(=O)[C@H](CC(=O)N(C)C)NC(=O)[C@@H](CC(=O)CCOCCOCC[N+](C)(C)C)C(C)(C)SSC(C)(C)[C@@H](C(=O)N[C@@H](Cc2ccc(OCCOCCOCC[N+](C)(C)C)cc2)C(=O)N[C@@H](Cc2ccc3ccccc3c2)C(=O)NC2(C(=O)N[C@@H](CCCCN(C)C(C)=O)C(=O)NC(CC(N)=O)C(=O)N[C@@H](Cc3cccnc3)C(=O)N(C)[C@@H](CCCCNC(=O)COCCOCCNC(=O)COCCOCCNC(=O)CC[C@H](NC(=O)CCCCCCCCCCCCCCCCC(=O)O)C(=O)O)C(N)=O)CCOCC2)NC1=O (stereo partly drawn) [compound 113, cPEG3aCO-Pen(3)-N(N(Me)2)-T-7MeW-K(NMeAc)-Pen(3)-APEG3F-2Nal-THP-K(NMeAc)-N-3Pya-NMeK(PEG2PEG2gEC18OH)-CONH2] (D(NMe2)T[Trp(7-Me)][Lys(Me)](Ac)[Pen]Y(CH2CH2OCH2CH2OCH2CH2NMe3+)[2Nal][Thp][Lys(Me)](Ac)[ξN][3Pal][NMeK]([AEEA-AEEA-γGlu-C18 diacid])-NH2; linker N-5 via X16) | > 9.30
6.30 to 7.30 | CC(=O)N(C)CCCC[C@@H]1NC(=O)[C@H](Cc2c[nH]c3c(C)cccc23)NC(=O)[C@H]([C@@H](C)O)NC(=O)[C@H](CCCCNC(=O)COCCOCCNC(=O)COCCOCCNC(=O)CC[C@H](NC(=O)CCCCCCCCCCCCCCCCCCC(=O)O)C(=O)O)NC(=O)[C@@H](NC(=O)CCOCCOCC[N+](C)(C)C)C(C)(C)SSC(C)(C)[C@@H](C(=O)N[C@@H](Cc2ccc(OCCCCC[N+](C)(C)C)cc2)C(=O)N[C@@H](Cc2ccc3ccccc3c2)C(=O)NC2(C(=O)N[C@@H](CCCCN(C)C(C)=O)C(=O)N[C@@H](CC(N)=O)C(=O)N[C@@H](Cc3cccnc3)C(=O)N(C)CC(=O)N(C)C)CCOCC2)NC1=O [compound 128, cPEG3aCO-Pen(3)-K(PEG2PEG2gEC20OH)-T-7MeW-K(NMeAc)-Pen(3)-TMAPF-2Nal-THP-K(NMeAc)-N-3Pya-Sar-CON(Me)2] ({Me3N+(CH2)2O(CH2)2O(CH2)2CO}-[Pen]K([AEEA-AEEA-γGlu-C20 diacid])T[Trp(7-Me)][Lys(Me)](Ac)[Pen]Y(X1)[2Nal][Thp][Lys(Me)](Ac)N[3Pal][Sar]-NMe2; disulfide 1-6) | 8.30 to 9.30
